According to patent publication US20080318943A1, “Compounds and Uses Thereof - 848” (ASTRAZENECA AB, priority 2007, published 2008):
Values joined by “and” are separate entries in the source; they are usually repeats but may differ in a detail not shown here. Equal values may be shown once.

Legend:
[1] = target: T1, GABAA2 receptors (α2, β3, γ2 receptor subunits transfected into Sf9 cells) (Homo sapiens, UniProt P18507+P47869); assay: GABAA2 Binding Method ([3H]-Flunitrazepam displacement); conditions: [3H]-Flunitrazepam ~2 nM, α2β3γ2 Sf9 membranes, 1 hr at 4° C.
T1 construct: host or cells: Sf9 cells (membranes)
Description: In some embodiments, the binding test is directed to a subtype of GABAA receptors, such as GABAA1 receptors (i.e., those containing the α1 subunit), GABAA2 receptors (i.e., those containing the α2 subunit), GABAA3 receptors (i.e., those containing the α3 subunit) and GABAA5 receptors (i.e., those containing the α5 subunit).
[^3H]-Flunitrazepam (Cat #NET567): Prepare 10× stock=20 nM, [F} in assay=˜2 nM
1. […] Add 5 ul of 30 uM flumazenil to wells 12 D-E for 50% control wells.
5. Add 25 μl [^3H]-Flunitrazepam (Automation Program 6). Incubate for 1 hr at 4° C.
6. Collect membranes on a cell harvester onto GF/B filter plates (pre-wet with dH2O and wash 5×400 μl/well, with cold assay buffer. (First 3 washes are considered hot; last two are cold.)
Data is analyzed by calculating percent of control, IC50, and Ki in an XLfit template. The following formula is used in the templates: […]

[2] = target: T2, GABAA receptor α1β2γ2 (Homo sapiens, UniProt P14867+P18507); assay: Two-electrode voltage-clamp potentiation of GABA EC10 current in Xenopus oocytes, GABAA1; assay type: cell-based; conditions: percentage potentiation of GABA EC10 current divided by that of diazepam
T2 construct: expressed in transfected cells; host or cells: Xenopus laevis oocytes injected with cRNA
Description: GABAA receptors were heterologously expressed in Xenopus oocytes by injecting cRNA corresponding to human α1, α2, α3, α5, β2, P3 and γ2 subunits of the GABAA receptor genes. The specific subunit combinations (subtypes) were as follows: α1β2γ2, α2β3γ2, α3β3γ2, and α5β3γ2. The EC10 of GABA is approximated for each cell. Stability of GABA-mediated (EC10) current is established. Modulatory effect of test compound is determined and compared across subtypes. […] Thus, the assay can characterize modulatory effects and determine subtype selectivity of test compounds on major subtypes of GABAA receptors.
Xenopus laevis frogs (Xenopus I, Kalamazoo, Mich.) were anesthetized using 0.15% tricaine. Surgically removed ovarian lobes were teased out in OR2 solution (82 NaCl, 2.5 KCl, 5 HEPES, 1.5 NaH2PO4, 1 MgCl2, 0.1 EDTA, in mM, pH 7.4). The oocytes were defolliculated by incubation in 25 mL OR2 containing 0.2% collagenase 1A (SIGMA) two times for about 60 minutes on a platform shaker and stored in Leibovitz's L-15 medium. Oocytes were injected the following day in 0.5× Leibovitz's L-15 medium containing […] gentamycin, 10 units/ml penicillin, and […] streptomycin.
Capped cRNAs from the linearized vectors containing human α1, β2 and γ2 subunits of the GABAA receptor genes were mixed in ratio of […]. Oocytes were injected with 25-50 nL of mixed RNA with an appx molar ratio for α1, β2, and γ2 as 1:1:10. Oocyte recordings were done 2-10 days after injection. The same methods apply to subtypes derived from α2β3γ2, α3β3γ2, and α5β3γ2, except for 1:1:1 ratio was used for α, β, and γ subunits.
All measurements were done in a medium containing ND-96 (96 NaCl, 2 KCl, 1.8 CaCl2.2H2O, 1 MgCl2.6H2O, 5 HEPES, in mM, pH 7.5). Two-electrode voltage-clamp recording was carried out using OpusXpress amplifier (Axon Instruments, Foster City, Calif.), which allows simultaneous recording from 8 oocytes. Oocytes were impaled with two electrodes of 1-2 MΩ tip resistance when filled with 3M KCl. Recordings were begun when membrane potential became stable at potentials negative to −50-−60 mV. Membrane potential was held at −60 mV. […] The concentration of GABA corresponded to the EC10 value calculated for each oocyte. The modulator pulses started 30 s before the GABA pulse so as to allow preincubation with the modulator. A set of 3 pulses with just GABA without modulator was given prior to the modulator-containing pulses to define the baseline GABA response. Two oocytes per each experiment were dedicated to observe the effect of diazepam on GABA response to ensure the presence of γ2 subunit in the GABAA pentameric complex, which imparts diazepam sensitivity to the complex.
Current amplitude (i) was measured from baseline to peak using Clampfit (Axon Inst., Foster City, Calif.). Potentiation was calculated as percent change from the baseline GABA current flux 100×(imod/icontrol)−1) where imod=current mediated by modulator+GABA and icontrol=current mediated by GABA alone. […] Similarly, a value of −50% potentiation means the presence of modulator caused a 50% decrease in the control current. Various other data shown here were fitted and plotted using GraphPad Prism (GraphPad Software, Inc. San Diego, Calif.). The percentage potentiation was converted to relative potentiation by dividing it with percentage potentiation value obtained from the same assay with diazepam as a control.

T1 sequence (P47869 29-451): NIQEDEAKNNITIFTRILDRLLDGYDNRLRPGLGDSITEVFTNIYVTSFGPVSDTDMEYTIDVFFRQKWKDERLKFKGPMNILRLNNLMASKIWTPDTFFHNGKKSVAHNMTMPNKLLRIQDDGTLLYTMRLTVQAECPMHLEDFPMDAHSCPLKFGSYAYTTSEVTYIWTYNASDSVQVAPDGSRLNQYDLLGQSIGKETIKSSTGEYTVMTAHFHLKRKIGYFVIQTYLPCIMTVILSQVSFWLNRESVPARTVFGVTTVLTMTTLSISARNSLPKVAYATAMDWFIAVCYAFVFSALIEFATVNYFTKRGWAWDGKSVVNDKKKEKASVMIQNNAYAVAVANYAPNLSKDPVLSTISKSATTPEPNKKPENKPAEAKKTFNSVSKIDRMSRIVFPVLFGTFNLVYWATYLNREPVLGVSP
T1 sequence (P28472 26-473 partner): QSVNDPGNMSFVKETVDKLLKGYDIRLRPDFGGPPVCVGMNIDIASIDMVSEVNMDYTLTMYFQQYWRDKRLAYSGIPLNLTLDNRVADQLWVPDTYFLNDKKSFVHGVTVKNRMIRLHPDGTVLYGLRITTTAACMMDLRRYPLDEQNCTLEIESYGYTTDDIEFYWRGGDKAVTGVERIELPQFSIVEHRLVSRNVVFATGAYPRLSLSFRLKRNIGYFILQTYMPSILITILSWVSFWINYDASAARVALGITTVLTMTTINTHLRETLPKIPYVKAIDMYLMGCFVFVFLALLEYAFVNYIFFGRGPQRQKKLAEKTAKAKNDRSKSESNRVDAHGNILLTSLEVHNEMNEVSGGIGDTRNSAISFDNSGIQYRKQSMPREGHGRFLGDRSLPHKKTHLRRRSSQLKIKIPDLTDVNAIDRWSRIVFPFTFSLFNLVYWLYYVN
T1 sequence (P18507 40-475): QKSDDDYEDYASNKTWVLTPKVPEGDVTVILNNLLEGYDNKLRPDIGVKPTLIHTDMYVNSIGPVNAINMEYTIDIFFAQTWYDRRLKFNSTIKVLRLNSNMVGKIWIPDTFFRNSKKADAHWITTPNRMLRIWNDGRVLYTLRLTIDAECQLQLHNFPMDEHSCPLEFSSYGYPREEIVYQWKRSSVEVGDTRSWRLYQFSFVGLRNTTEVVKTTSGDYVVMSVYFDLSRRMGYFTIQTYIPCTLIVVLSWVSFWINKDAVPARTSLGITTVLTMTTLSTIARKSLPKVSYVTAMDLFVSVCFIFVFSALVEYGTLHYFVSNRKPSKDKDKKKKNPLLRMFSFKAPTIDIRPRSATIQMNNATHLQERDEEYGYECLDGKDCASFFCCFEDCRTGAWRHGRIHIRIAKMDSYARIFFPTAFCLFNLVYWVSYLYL
T2 sequence (P14867 28-456): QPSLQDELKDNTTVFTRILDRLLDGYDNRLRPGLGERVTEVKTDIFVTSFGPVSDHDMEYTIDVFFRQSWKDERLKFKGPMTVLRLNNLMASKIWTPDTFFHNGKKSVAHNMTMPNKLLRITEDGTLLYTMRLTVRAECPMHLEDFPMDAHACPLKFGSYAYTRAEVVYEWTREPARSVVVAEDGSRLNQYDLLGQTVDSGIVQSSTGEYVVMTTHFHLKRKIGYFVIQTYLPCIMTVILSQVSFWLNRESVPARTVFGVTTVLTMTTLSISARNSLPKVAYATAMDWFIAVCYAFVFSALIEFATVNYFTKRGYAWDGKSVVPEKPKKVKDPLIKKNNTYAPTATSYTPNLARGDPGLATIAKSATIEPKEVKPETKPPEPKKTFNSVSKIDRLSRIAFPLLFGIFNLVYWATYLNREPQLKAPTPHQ
T2 sequence (P47870 25-512 partner limits assumed): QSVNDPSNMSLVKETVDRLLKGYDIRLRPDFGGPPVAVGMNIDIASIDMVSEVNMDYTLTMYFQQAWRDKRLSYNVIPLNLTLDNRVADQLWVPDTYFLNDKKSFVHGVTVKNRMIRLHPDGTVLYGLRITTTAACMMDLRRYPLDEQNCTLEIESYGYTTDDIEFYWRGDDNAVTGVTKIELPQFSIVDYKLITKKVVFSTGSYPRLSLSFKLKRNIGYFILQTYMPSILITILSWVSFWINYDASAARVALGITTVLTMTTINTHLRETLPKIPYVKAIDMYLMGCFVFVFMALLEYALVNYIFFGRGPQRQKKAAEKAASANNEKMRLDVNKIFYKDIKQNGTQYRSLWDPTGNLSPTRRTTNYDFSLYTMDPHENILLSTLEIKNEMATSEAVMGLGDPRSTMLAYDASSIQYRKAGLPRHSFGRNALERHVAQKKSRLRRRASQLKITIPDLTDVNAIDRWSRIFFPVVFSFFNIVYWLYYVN
T2 sequence (P18507 40-475): as the sequence (P18507 40-475) above

Ki [1]	Relative Potentiation for GABAA1 [2]	SMILES
0.0477 µM	0.61	COc1ccc(CN2Cc3nc4c(-c5ccc(OC)c(OC)c5)cccc4c(N)c3C2=O)cc1
0.0212 µM	0.54	CCCN1Cc2nc3c(-c4cccc(C#N)c4)cccc3c(N)c2C1=O [3-(9-amino-1-oxo-2-propyl-2,3-dihydro-1H-pyrrolo[3,4-b]quinolin-5-yl)benzonitrile]
0.0649 µM	0.26	CCCN1Cc2nc3c(-c4cncc(C#N)c4)cccc3c(N)c2C1=O [5-(9-amino-1-oxo-2-propyl-2,3-dihydro-1H-pyrrolo[3,4-b]quinolin-5-yl)nicotinonitrile]
0.0027 µM	0.21	COc1ccc(CN2Cc3nc4c(-c5ccc(C)nc5C)cccc4c(N)c3C2=O)cc1OC [9-amino-2-(3,4-dimethoxybenzyl)-5-(2,6-dimethylpyridin-3-yl)-2,3-dihydro-1H-pyrrolo[3,4-b]quinolin-1-one]
0.00918 µM	0.3	COc1ccc(CN2Cc3nc4c(-c5cc(C)ccc5OC)cccc4c(N)c3C2=O)cc1OC [9-amino-2-(3,4-dimethoxybenzyl)-5-(2-methoxy-5-methylphenyl)-2,3-dihydro-1H-pyrrolo[3,4-b]quinolin-1-one]
0.0023 µM	0.12	COc1ccc(CN2Cc3nc4c(-c5cccnc5OC)cccc4c(N)c3C2=O)cc1OC [9-amino-2-(3,4-dimethoxybenzyl)-5-(2-methoxypyridin-3-yl)-2,3-dihydro-1H-pyrrolo[3,4-b]quinolin-1-one]
0.0047 µM	0.26	COc1ccc(-c2cccc3c(N)c4c(nc23)CN(Cc2ccc(OC)c(OC)c2)C4=O)c(C)n1 [9-amino-2-(3,4-dimethoxybenzyl)-5-(6-methoxy-2-methylpyridin-3-yl)-2,3-dihydro-1H-pyrrolo[3,4-b]quinolin-1-one]
0.00989 µM	0.25	COc1ccc(CN2Cc3nc4c(-c5cccnc5OC)cccc4c(N)c3C2=O)cc1Cl [9-amino-2-(3-chloro-4-methoxybenzyl)-5-(2-methoxypyridin-3-yl)-2,3-dihydro-1H-pyrrolo[3,4-b]quinolin-1-one]
0.00609 µM	0.22	COc1ccc(CN2Cc3nc4c(-c5cncc(OC)c5)cccc4c(N)c3C2=O)cc1 [9-amino-2-(4-methoxybenzyl)-5-(5-methoxypyridin-3-yl)-2,3-dihydro-1H-pyrrolo[3,4-b]quinolin-1-one]
0.0302 µM	0.4	COc1ncc(-c2cccc3c(N)c4c(nc23)CN(Cc2ccc3c(c2)OCO3)C4=O)c(OC)n1 [9-amino-2-(benzo[d][1,3]dioxol-5-ylmethyl)-5-(2,4-dimethoxypyrimidin-5-yl)-2,3-dihydro-1H-pyrrolo[3,4-b]quinolin-1-one]
0.0606 µM	0.33	COc1ccc(OC)c(-c2cccc3c(N)c4c(nc23)CN(Cc2ccc3c(c2)OCO3)C4=O)c1 [9-amino-2-(benzo[d][1,3]dioxol-5-ylmethyl)-5-(2,5-dimethoxyphenyl)-2,3-dihydro-1H-pyrrolo[3,4-b]quinolin-1-one]
0.00578 µM	0.24	COc1ncccc1-c1cccc2c(N)c3c(nc12)CN(Cc1ccc2c(c1)OCO2)C3=O [9-amino-2-(benzo[d][1,3]dioxol-5-ylmethyl)-5-(2-methoxypyridin-3-yl)-2,3-dihydro-1H-pyrrolo[3,4-b]quinolin-1-one]
0.0655 µM		Cc1cc(C)cc(-c2cccc3c(N)c4c(nc23)CN(C)C4=O)c1 [9-amino-5-(3,5-dimethylphenyl)-2-methyl-2,3-dihydro-1H-pyrrolo[3,4-b]quinolin-1-one]
0.0765 µM		CCCN1Cc2nc3c(-c4cccc(Cl)c4)cccc3c(N)c2C1=O [9-amino-5-(3-chlorophenyl)-2-propyl-2,3-dihydro-1H-pyrrolo[3,4-b]quinolin-1-one]
0.057 µM		CCCN1Cc2nc3c(-c4cccc(F)c4OC)cccc3c(N)c2C1=O [9-amino-5-(3-fluoro-2-methoxyphenyl)-2-propyl-2,3-dihydro-1H-pyrrolo[3,4-b]quinolin-1-one]
0.0804 µM		COc1cc(F)cc(-c2cccc3c(N)c4c(nc23)CN(C)C4=O)c1 [9-amino-5-(3-fluoro-5-methoxyphenyl)-2-methyl-2,3-dihydro-1H-pyrrolo[3,4-b]quinolin-1-one]
0.0783 µM		CCCN1Cc2nc3c(-c4ccc(F)cc4)cccc3c(N)c2C1=O [9-amino-5-(4-fluorophenyl)-2-propyl-2,3-dihydro-1H-pyrrolo[3,4-b]quinolin-1-one]
0.0811 µM		CCCN1Cc2nc3c(-c4cnc(OC)c(F)c4)cccc3c(N)c2C1=O [9-amino-5-(5-fluoro-6-methoxypyridin-3-yl)-2-propyl-2,3-dihydro-1H-pyrrolo[3,4-b]quinolin-1-one]
0.0857 µM		CCCN1Cc2nc3c(-c4cnc(Cl)c(C)c4)cccc3c(N)c2C1=O [9-amino-5-(6-chloro-5-methylpyridin-3-yl)-2-propyl-2,3-dihydro-1H-pyrrolo[3,4-b]quinolin-1-one]
0.00363 µM and 0.00636 µM		COc1cccc(F)c1-c1cccc2c(N)c3c(nc12)CN(C1CC1)C3=O [Example 16, 9-Amino-2-cyclopropyl-5-(2-fluoro-6-methoxyphenyl)-2,3-dihydropyrrolo[3,4-b]quinolin-1-one]
0.00833 µM		COc1ccc(-c2c(F)ccc3c(N)c4c(nc23)CN(C2CC2)C4=O)c(OC)c1 [Example 28, 9-Amino-2-cyclopropyl-5-(2,4-dimethoxyphenyl)-6-fluoro-2,3-dihydropyrrolo[3,4-b]quinolin-1-one]
0.00243 µM		CCN1Cc2nc3c(-c4cnccc4OC)c(F)ccc3c(N)c2C1=O [Example 36, 9-Amino-2-ethyl-6-fluoro-5-(4-methoxypyridin-3-yl)-2,3-dihydropyrrolo[3,4-b]quinolin-1-one]
0.000774 µM		COc1ccc(-c2c(F)ccc3c(N)c4c(nc23)CN(C2CCC2)C4=O)c(OC)n1 [Example 52, 9-Amino-2-cyclobutyl-5-(2,6-dimethoxypyridin-3-yl)-6-fluoro-2,3-dihydropyrrolo[3,4-b]quinolin-1-one]
0.0145 µM		COc1ccc(-c2c(F)ccc3c(N)c4c(nc23)CN(C2CC2)C4=O)c(OC)n1 [Example 54, 9-Amino-2-cyclopropyl-5-(2,6-dimethoxypyridin-3-yl)-6-fluoro-2,3-dihydropyrrolo[3,4-b]quinolin-1-one]
0.00349 µM		CCCN1Cc2nc3c(-c4c(F)cccc4OC)c(F)ccc3c(N)c2C1=O [Example 55, 9-Amino-6-fluoro-5-(2-fluoro-6-methoxyphenyl)-2-propyl-2,3-dihydropyrrolo[3,4-b]quinolin-1-one]

SMILES	Ki [1]	Relative Potentiation for GABAA1 [2]
CCN1Cc2nc3c(-c4cnc(OC)nc4OC)c(F)ccc3c(N)c2C1=O [Example 34, 9-Amino-5-(2,4-dimethoxypyrimidin-5-yl)-2-ethyl-6-fluoro-2,3-dihydropyrrolo[3,4-b]quinolin-1-one]	0.0167 µM	
